{"source": "paper PMC5218480", "about": "(PLoS ONE, 2017)", "system": "MV-4-11 cells", "experiment": "Gene expression microarray analysis (Affymetrix PrimeView) and GSEA", "format": "cell-based, human", "design": "RFU PODN (11730768_x_at) / Fold change /veh PODN (11730768_x_at) / RFU LINC00158 (11744669_a_at) / Fold change /veh LINC00158 (11744669_a_at) / RFU DUSP10 (11751237_a_at) / Fold change /veh DUSP10 (11751237_a_at) / RFU ID3 (11757404_x_at) / Fold change /veh ID3 (11757404_x_at) / RFU PLEKHG5 (11737974_s_at) / Fold change /veh PLEKHG5 (11737974_s_at) / RFU LRRC4B (11730491_at) / Fold change /veh LRRC4B (11730491_at) / RFU GIMAP4 (11747438_a_at) / Fold change /veh GIMAP4 (11747438_a_at) / RFU KRT8 (11758183_x_at) / Fold change /veh KRT8 (11758183_x_at) / RFU CNN1 (11734310_a_at) / Fold change /veh CNN1 (11734310_a_at) / RFU VPS37D (11726825_at) / Fold change /veh VPS37D (11726825_at) / RFU C10orf10 (11716522_x_at) / Fold change /veh C10orf10 (11716522_x_at) / RFU KIR2DL2 /// KIR2DL4 /// KIR2DL5A /// KIR2DL5B /// KIR2DS1 /// KIR2DS2 /// KIR2DS3 /// KIR2DS4 /// KIR3DL3 /// KIR3DL3 /// KIR3DS1 (11738374_at) / Fold change /veh KIR2DL2 /// KIR2DL4 /// KIR2DL5A /// KIR2DL5B /// KIR2DS1 /// KIR2DS2 /// KIR2DS3 /// KIR2DS4 /// KIR3DL3 /// KIR3DL3 /// KIR3DS1 (11738374_at) / RFU C1QL1 (11718748_at) / Fold change /veh C1QL1 (11718748_at) / RFU TMPRSS4 (11747572_a_at) / Fold change /veh TMPRSS4 (11747572_a_at) / RFU HAMP (11756126_x_at) / Fold change /veh HAMP (11756126_x_at) / RFU RNFT2 (11725882_a_at) / Fold change /veh RNFT2 (11725882_a_at) / RFU NR4A2 (11747474_a_at) / Fold change /veh NR4A2 (11747474_a_at) / RFU ABCC12 (11746883_a_at) / Fold change /veh ABCC12 (11746883_a_at) / RFU TMEM136 (11760407_x_at) / Fold change /veh TMEM136 (11760407_x_at) / RFU CLDN22 /// WWC2 (11732394_at) / Fold change /veh CLDN22 /// WWC2 (11732394_at) / RFU HLA-DPB1 (11760878_x_at) / Fold change /veh HLA-DPB1 (11760878_x_at) / RFU SPINT1 (11716480_a_at) / Fold change /veh SPINT1 (11716480_a_at) / RFU GAP43 (11754022_s_at) / Fold change /veh GAP43 (11754022_s_at) / RFU A4GNT (11735810_at) / Fold change /veh A4GNT (11735810_at) / RFU PRB3 (11715151_x_at) / Fold change /veh PRB3 (11715151_x_at) / RFU TUBB4B (11761932_at) / Fold change /veh TUBB4B (11761932_at) / RFU CAPN14 (11732068_a_at) / Fold change /veh CAPN14 (11732068_a_at) / RFU TMCC2 (11721928_a_at) / Fold change /veh TMCC2 (11721928_a_at) / RFU IRGQ (11745062_a_at) / Fold change /veh IRGQ (11745062_a_at) / RFU FAM174B (11720279_a_at) / Fold change /veh FAM174B (11720279_a_at) / RFU TMPRSS4 (11748680_a_at) / Fold change /veh TMPRSS4 (11748680_a_at) / RFU FAM212B (11763350_a_at) / Fold change /veh FAM212B (11763350_a_at) / RFU PLEKHG5 (11743358_a_at) / Fold change /veh PLEKHG5 (11743358_a_at) / RFU ZSCAN30 (11745921_a_at) / Fold change /veh ZSCAN30 (11745921_a_at) / RFU CMKLR1 (11741424_a_at) / Fold change /veh CMKLR1 (11741424_a_at) / RFU LOC101060620 /// MAPK8IP1 (11723275_at) / Fold change /veh LOC101060620 /// MAPK8IP1 (11723275_at) / RFU SPTSSB (11747773_x_at) / Fold change /veh SPTSSB (11747773_x_at) / RFU PRSS12 (11739890_at) / Fold change /veh PRSS12 (11739890_at) / RFU BIN1 (11741810_x_at) / Fold change /veh BIN1 (11741810_x_at) / RFU WNT11 (11732464_a_at) / Fold change /veh WNT11 (11732464_a_at) / RFU C10orf10 (11716521_a_at) / Fold change /veh C10orf10 (11716521_a_at) / RFU C5orf56 (11738089_at) / Fold change /veh C5orf56 (11738089_at) / RFU CYB561 (11721691_x_at) / Fold change /veh CYB561 (11721691_x_at) / RFU ANKRD19P (11752326_a_at) / Fold change /veh ANKRD19P (11752326_a_at) / RFU OR2T12 /// OR2T33 /// OR2T8 (11738714_s_at) / Fold change /veh OR2T12 /// OR2T33 /// OR2T8 (11738714_s_at) / RFU VCAN (11748164_a_at) / Fold change /veh VCAN (11748164_a_at) / RFU JSRP1 (11732532_at) / Fold change /veh JSRP1 (11732532_at) / RFU KRTAP10-11 (11738290_x_at) / Fold change /veh KRTAP10-11 (11738290_x_at) / RFU MYO3A (11730013_a_at) / Fold change /veh MYO3A (11730013_a_at) / RFU EBF3 (11725865_a_at) / Fold change /veh EBF3 (11725865_a_at) / RFU CAMK2N1 (11719241_x_at) / Fold change /veh CAMK2N1 (11719241_x_at) / RFU C5orf56 (11738088_a_at) / Fold change /veh C5orf56 (11738088_a_at) / RFU OLFML3 (11715873_a_at) / Fold change /veh OLFML3 (11715873_a_at) / RFU LOC100653217 /// NTM (11731650_a_at) / Fold change /veh LOC100653217 /// NTM (11731650_a_at) / RFU MAPK11 (11762145_a_at) / Fold change /veh MAPK11 (11762145_a_at) / RFU FIZ1 (11724087_x_at) / Fold change /veh FIZ1 (11724087_x_at) / RFU OASL (11726364_x_at) / Fold change /veh OASL (11726364_x_at) / RFU SOX15 (11748057_x_at) / Fold change /veh SOX15 (11748057_x_at) / RFU CD79A (11719716_a_at) / Fold change /veh CD79A (11719716_a_at) / RFU HIST1H1D (11736915_at) / Fold change /veh HIST1H1D (11736915_at) / RFU CASKIN2 (11723855_a_at) / Fold change /veh CASKIN2 (11723855_a_at) / RFU LOC730098 (11760151_x_at) / Fold change /veh LOC730098 (11760151_x_at) / RFU OR4N2 (11742367_at) / Fold change /veh OR4N2 (11742367_at) / RFU PRRT2 (11749266_a_at) / Fold change /veh PRRT2 (11749266_a_at) / RFU SNX32 (11753110_a_at) / Fold change /veh SNX32 (11753110_a_at) / RFU CDHR5 (11726645_a_at) / Fold change /veh CDHR5 (11726645_a_at) / RFU RCAN1 (11760418_a_at) / Fold change /veh RCAN1 (11760418_a_at) / RFU FAM167A (11723789_a_at) / Fold change /veh FAM167A (11723789_a_at) / RFU FAM26E (11764081_at) / Fold change /veh FAM26E (11764081_at) / RFU ISYNA1 (11749810_s_at) / Fold change /veh ISYNA1 (11749810_s_at) / RFU ACY1 (11761880_at) / Fold change /veh ACY1 (11761880_at) / RFU 11764098_at / Fold change /veh 11764098_at / RFU SAMD14 (11745864_x_at) / Fold change /veh SAMD14 (11745864_x_at) / RFU NPB (11741838_a_at) / Fold change /veh NPB (11741838_a_at) / RFU TMPRSS6 (11731388_a_at) / Fold change /veh TMPRSS6 (11731388_a_at) / RFU KRTAP10-2 (11738614_at) / Fold change /veh KRTAP10-2 (11738614_at) / RFU ARHGAP8 /// PRR5-ARHGAP8 (11727945_x_at) / Fold change /veh ARHGAP8 /// PRR5-ARHGAP8 (11727945_x_at) / RFU KRTAP5-7 /// NADSYN1 (11734609_at) / Fold change /veh KRTAP5-7 /// NADSYN1 (11734609_at) / RFU RASL12 (11751679_a_at) / Fold change /veh RASL12 (11751679_a_at) / RFU CDKN2B (11736163_a_at) / Fold change /veh CDKN2B (11736163_a_at) / RFU PRF1 (11729649_at) / Fold change /veh PRF1 (11729649_at) / RFU, ZNF638 /// ZNF638-IT1 / Fold change vs veh, ZNF638 /// ZNF638-IT1 / RFU, PANK3 / Fold change vs veh, PANK3 / RFU, SH3YL1 / Fold change vs veh, SH3YL1 / RFU, ZEB2 / Fold change vs veh, ZEB2 / RFU, NRIP1 / Fold change vs veh, NRIP1 / RFU, PTTG1IP / Fold change vs veh, PTTG1IP / RFU, CAPN2 / Fold change vs veh, CAPN2 / RFU, MED14 / Fold change vs veh, MED14 / RFU, SNORA58 / Fold change vs veh, SNORA58 / RFU, C1orf63 / Fold change vs veh, C1orf63 / RFU, LRRFIP1 / Fold change vs veh, LRRFIP1 / RFU, NDUFAF7 / Fold change vs veh, NDUFAF7 / RFU, SLC12A2 / Fold change vs veh, SLC12A2 / RFU, IBTK / Fold change vs veh, IBTK / RFU, ESF1 / Fold change vs veh, ESF1 / Fold change vs veh, TMEM50B / RFU, TAOK1 / Fold change vs veh, TAOK1 / RFU, ACBD3 / Fold change vs veh, ACBD3 / RFU, TMA16 / Fold change vs veh, TMA16 / RFU, RWDD3 / Fold change vs veh, RWDD3 / RFU, BCAT1 / Fold change vs veh, BCAT1 / RFU, EDEM3 / Fold change vs veh, EDEM3 / RFU, TMEM33 / Fold change vs veh, TMEM33 / RFU, WDR75 / Fold change vs veh, WDR75 / RFU, AHCTF1 / Fold change vs veh, AHCTF1 / RFU, TFRC / Fold change vs veh, TFRC / RFU, ZDHHC17 / Fold change vs veh, ZDHHC17 / RFU, NOM1 / Fold change vs veh, NOM1 / RFU, ARL8B / Fold change vs veh, ARL8B / RFU, ZBTB11 / Fold change vs veh, ZBTB11 / RFU, TAMM41 / Fold change vs veh, TAMM41 / RFU, KIAA1704 /// LOC100996395 / Fold change vs veh, KIAA1704 /// LOC100996395 / RFU, ING1 / Fold change vs veh, ING1 / RFU, TRMT61B / Fold change vs veh, TRMT61B / RFU, FUBP3 / Fold change vs veh, FUBP3 / RFU, TP53 / Fold change vs veh, TP53 / RFU, TNKS2 / Fold change vs veh, TNKS2 / RFU, ZFP14 / Fold change vs veh, ZFP14 / RFU, ACTR2 / Fold change vs veh, ACTR2 / RFU, PPP3R1 / Fold change vs veh, PPP3R1 / RFU, PIK3R1 / Fold change vs veh, PIK3R1 / RFU, HNRNPA1 / Fold change vs veh, HNRNPA1 / RFU, RNF170 / Fold change vs veh, RNF170 / RFU, ZNF28 / Fold change vs veh, ZNF28 / RFU, RNGTT / Fold change vs veh, RNGTT / RFU, OGT / Fold change vs veh, OGT / RFU, BRD1 / Fold change vs veh, BRD1 / RFU, MARS / Fold change vs veh, MARS / RFU, ZNF655 / Fold change vs veh, ZNF655 / RFU, FAHD1 / Fold change vs veh, FAHD1 / RFU, BDP1 / Fold change vs veh, BDP1 / RFU, LRRCC1 / Fold change vs veh, LRRCC1 / RFU, ARID1A / Fold change vs veh, ARID1A / RFU, ZNF146 / Fold change vs veh, ZNF146 / RFU, ZNF330 / Fold change vs veh, ZNF330 / RFU, GPN3 / Fold change vs veh, GPN3 / RFU, C9orf123 / Fold change vs veh, C9orf123 / RFU, N4BP2L2 / Fold change vs veh, N4BP2L2 / RFU, ARFIP1 / Fold change vs veh, ARFIP1 / RFU, FAM179B / Fold change vs veh, FAM179B / RFU, BCL10 / Fold change vs veh, BCL10 / RFU, UHRF1BP1L / Fold change vs veh, UHRF1BP1L / RFU, BET1 / Fold change vs veh, BET1 / RFU, CNOT2 / Fold change vs veh, CNOT2 / RFU, ZNF268 / Fold change vs veh, ZNF268 / Fold change vs veh, ZNF507 / RFU, DGCR2 / Fold change vs veh, DGCR2 / RFU, WDSUB1 / Fold change vs veh, WDSUB1 / Fold change vs veh, HSP90B1 /// MIR3652 / RFU, ADSS / Fold change vs veh, ADSS / RFU, GK / Fold change vs veh, GK / RFU, ZNF148 / Fold change vs veh, ZNF148 / RFU, TAF9 / Fold change vs veh, TAF9 / RFU, SLC1A5 / Fold change vs veh, SLC1A5 / RFU, SLMO2 / Fold change vs veh, SLMO2 / RFU, ABCC4 / Fold change vs veh, ABCC4 / RFU, LOC101060439 /// RAP1B / Fold change vs veh, LOC101060439 /// RAP1B / RFU, RFX7 / Fold change vs veh, RFX7 / RFU, GTPBP10 / Fold change vs veh, GTPBP10 / RFU, CNEP1R1 / Fold change vs veh, CNEP1R1 / RFU, BIVM-ERCC5 /// ERCC5 / Fold change vs veh, BIVM-ERCC5 /// ERCC5 / RFU, ILF3 / Fold change vs veh, ILF3 / RFU 11762660_at / Fold change /veh 11762660_at / RFU VCAN (11757783_s_at) / Fold change /veh VCAN (11757783_s_at) / RFU DDX43 (11728927_at) / Fold change /veh DDX43 (11728927_at) / RFU KRT8 (11758188_x_at) / Fold change /veh KRT8 (11758188_x_at) / RFU NKD1 (11759106_at) / Fold change /veh NKD1 (11759106_at) / RFU SRD5A1 (11742802_a_at) / Fold change /veh SRD5A1 (11742802_a_at) / RFU TPSAB1 /// TPSB2 (11721975_s_at) / Fold change /veh TPSAB1 /// TPSB2 (11721975_s_at) / RFU GSTM3 (11746129_a_at) / Fold change /veh GSTM3 (11746129_a_at) / RFU IL23R (11737362_x_at) / Fold change /veh IL23R (11737362_x_at) / RFU TMEM51 (11727254_a_at) / Fold change /veh TMEM51 (11727254_a_at) / RFU PIWIL2 (11732686_x_at) / Fold change /veh PIWIL2 (11732686_x_at) / RFU ORM1 (11744905_x_at) / Fold change /veh ORM1 (11744905_x_at) / RFU CCDC152 (11743942_at) / Fold change /veh CCDC152 (11743942_at) / RFU ECM1 (11717891_a_at) / Fold change /veh ECM1 (11717891_a_at) / RFU IL23R (11748794_a_at) / Fold change /veh IL23R (11748794_a_at) / RFU TNFAIP8L3 (11732012_x_at) / Fold change /veh TNFAIP8L3 (11732012_x_at) / RFU MBOAT4 (11741988_at) / Fold change /veh MBOAT4 (11741988_at) / RFU 11764193_at / Fold change /veh 11764193_at / RFU TMEM53 (11763286_at) / Fold change /veh TMEM53 (11763286_at) / RFU MAGEB2 (11727129_at) / Fold change /veh MAGEB2 (11727129_at) / RFU TMEM200A (11744735_a_at) / Fold change /veh TMEM200A (11744735_a_at) / RFU CCDC152 (11751479_a_at) / Fold change /veh CCDC152 (11751479_a_at) / RFU FAM211A (11726209_a_at) / Fold change /veh FAM211A (11726209_a_at) / RFU RGS16 (11746705_a_at) / Fold change /veh RGS16 (11746705_a_at) / RFU VCAN (11755009_s_at) / Fold change /veh VCAN (11755009_s_at) / RFU RHOB (11743442_s_at) / Fold change /veh RHOB (11743442_s_at) / RFU RGS16 (11720943_a_at) / Fold change /veh RGS16 (11720943_a_at) / RFU RGS16 (11720944_at) / Fold change /veh RGS16 (11720944_at) / RFU, VPS4B / Fold change vs veh, VPS4B / RFU, CREB1 / Fold change vs veh, CREB1 / RFU, DNAJC13 / Fold change vs veh, DNAJC13 / RFU, GNAQ / Fold change vs veh, GNAQ / RFU, CDK5R1 / Fold change vs veh, CDK5R1 / RFU, ZRANB3 / Fold change vs veh, ZRANB3 / RFU, CUL4A / Fold change vs veh, CUL4A / RFU, CCNY / Fold change vs veh, CCNY / RFU, UFL1 / Fold change vs veh, UFL1 / RFU, COG3 / Fold change vs veh, COG3 / RFU, DIAPH2 / Fold change vs veh, DIAPH2 / RFU, SKA2 / Fold change vs veh, SKA2 / RFU, AFF3 / Fold change vs veh, AFF3 / RFU, LMF1 / Fold change vs veh, LMF1 / RFU, IPO11 / Fold change vs veh, IPO11 / RFU, DFFB / Fold change vs veh, DFFB / RFU, FOXP1 / Fold change vs veh, FOXP1 / RFU, CARD8 / Fold change vs veh, CARD8 / RFU, STRN3 / Fold change vs veh, STRN3 / RFU, ADK / Fold change vs veh, ADK / RFU, RASSF2 / Fold change vs veh, RASSF2 / RFU, WIPF1 / Fold change vs veh, WIPF1 / RFU, LARP1B / Fold change vs veh, LARP1B / RFU, RASA1 / Fold change vs veh, RASA1 / RFU, RB1 / Fold change vs veh, RB1 / RFU, PPFIA1 / Fold change vs veh, PPFIA1 / RFU, MAT2A / Fold change vs veh, MAT2A / RFU, CCT5 / Fold change vs veh, CCT5 / RFU, WDR92 / Fold change vs veh, WDR92 / RFU, CUX1 / Fold change vs veh, CUX1 / RFU, TTC7A / Fold change vs veh, TTC7A / RFU, TMEM135 / Fold change vs veh, TMEM135 / RFU, DEPTOR / Fold change vs veh, DEPTOR / RFU, CPM / Fold change vs veh, CPM / RFU, DNAJB6 / Fold change vs veh, DNAJB6 / RFU, CACNA2D3 / Fold change vs veh, CACNA2D3 / RFU, DTX4 / Fold change vs veh, DTX4 / RFU, TFCP2 / Fold change vs veh, TFCP2 / RFU, GMCL1 /// GMCL1P1 / Fold change vs veh, GMCL1 /// GMCL1P1 / RFU, AEBP2 / Fold change vs veh, AEBP2 / RFU, SNHG1 /// SNORD22 /// SNORD25 /// SNORD26 /// SNORD27 /// SNORD28 /// SNORD29 /// SNORD31 / Fold change vs veh, SNHG1 /// SNORD22 /// SNORD25 /// SNORD26 /// SNORD27 /// SNORD28 /// SNORD29 /// SNORD31 / Fold change (Aza/veh), C12orf56 (ProbeSet 11735607_a_at) / Fold change (ACY-1035/veh), C12orf56 (ProbeSet 11735607_a_at) / Fold change (Aza/veh), FGFR1OP (ProbeSet 11751329_s_at) / Fold change (ACY-1035/veh), FGFR1OP (ProbeSet 11751329_s_at) / Fold change (Aza/veh), VPS36 (ProbeSet 11739960_a_at) / Fold change (ACY-1035/veh), VPS36 (ProbeSet 11739960_a_at) / RFU SYPL1 (11715823_x_at) / Fold change /veh SYPL1 (11715823_x_at) / RFU IGFBP7 (11715501_s_at) / Fold change /veh IGFBP7 (11715501_s_at) / RFU REEP3 (11722064_at) / Fold change /veh REEP3 (11722064_at) / RFU IGLL1 (11728026_x_at) / Fold change /veh IGLL1 (11728026_x_at): dose or concentration left out as unconfirmed", "conditions": "MV-4-11 cells, 48 hours", "data": [{"smiles": "Nc1ccc(-c2cccs2)cc1NC(=O)c1ccc2c(c1)cc(C1CC1)n2CCN1CCOCC1", "note": "[ACY-1035]", "values": [{"measurement": "RFU CCDC152 (11743942_at)", "value": 5.45, "unit": "RFU"}]}]}
